Measurements: patent publication US8067395B2, “Inhibitors of tyrosine kinases and uses thereof” (Pharmacyclics, Inc., priority 2006, dated 2011)

Target: Btk (Homo sapiens, UniProt Q06187)
Assay: Btk TR-FRET kinase inhibition assay
Assay type: biochemical
Conditions: pH 7.4, ATP at the Km for the kinase, 1 μM peptide substrate, [Btk]total=0.5 nM, read-out: Btk-TRFRET (Ki)
Protocol: Suitable in vitro assays for measuring kinase activity and the inhibition thereof by compounds are known (e.g., see Kuzmic et al. Anal. Biochem. 2000, 286, 45-50).
The following protocol represents an assay for determination of inhibition of kinases under physiological conditions (pH 7.4). Kinase activity was determined using a time-resolved fluorescence resonance energy transfer (TR-FRET) methodology. Measurements were performed in a reaction volume of 50 μL using 96-well assay plates. Kinase enzyme, inhibitor, ATP (at the Km for the kinase), and 1 μM peptide substrate (Biotin-AVLESEEELYSSARQ-NH2) were incubated in a reaction buffer composed of 20 mM Tris, 50 mM NaCl, MgCl2 (5-25 mM depending on the kinase), 1 mM DTT, 0.1 mM EDTA, 0.01% bovine serum albumin, 0.005% Tween-20, and 10% DMSO at pH 7.4 for one hour. The reaction was quenched by the addition of 1.2 equivalents of EDTA (relative to Mg^2+) in 25 μL of 1× Lance buffer (Perkin-Elmer). Streptavidin-APC (Perkin-Elmer) and Eu-labeled p-Tyr100 antibody (Perkin-Elmer) in 1× Lance buffer were added in a 25 μL volume to give final concentrations of 100 nM and 2.5 nM, respectively, and the mixture was allowed to incubate for one hour. The TR-FRET signal was measured on a multimode plate reader with an excitation wavelength of 330 nm and detection wavelengths of 615 nm and 665 nm. Activity was determined by the ratio of the fluorescence at 665 nm to that at 615 nm. For each compound, enzyme activity was measured at various concentrations of compound. Negative control reactions were performed in the absence of inhibitor in replicates of six, and two no-enzyme controls were used to determine baseline fluorescence levels. Inhibition constants were obtained using the program BatchKi (Kuzmic et al. Anal. Biochem. 2000, 286, 45-50). IC50s were obtained according to this equation: IC50={Ki(app)/(1+[ATP]/Km^ATP)}+[E]total/2; for all kinases, [ATP]=Km^ATP, [Btk]total=0.5 nM and [Lck]total=6 nM.

Sequence of Btk (Q06187 whole entry): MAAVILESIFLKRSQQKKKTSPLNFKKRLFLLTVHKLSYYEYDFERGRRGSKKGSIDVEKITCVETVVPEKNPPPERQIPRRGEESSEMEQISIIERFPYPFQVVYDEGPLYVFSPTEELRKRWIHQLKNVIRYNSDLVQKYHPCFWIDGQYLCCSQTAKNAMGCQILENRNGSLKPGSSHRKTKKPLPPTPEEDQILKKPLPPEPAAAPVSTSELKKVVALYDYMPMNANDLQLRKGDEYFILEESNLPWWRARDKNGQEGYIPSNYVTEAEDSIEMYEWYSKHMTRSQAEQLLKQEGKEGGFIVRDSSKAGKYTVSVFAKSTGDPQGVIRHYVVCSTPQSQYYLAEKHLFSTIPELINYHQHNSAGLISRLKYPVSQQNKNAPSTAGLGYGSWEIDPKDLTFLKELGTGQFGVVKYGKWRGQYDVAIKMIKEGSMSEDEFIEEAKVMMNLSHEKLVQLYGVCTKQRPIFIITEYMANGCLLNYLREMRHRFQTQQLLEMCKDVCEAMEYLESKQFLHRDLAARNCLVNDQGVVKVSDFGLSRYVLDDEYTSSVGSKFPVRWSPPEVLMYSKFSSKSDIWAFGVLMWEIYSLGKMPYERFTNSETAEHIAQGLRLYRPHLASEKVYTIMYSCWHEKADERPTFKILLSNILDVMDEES

SMILES	Ki
Cc1cc(F)ccc1Nc1nc2ccc3c(C)c(C=CCN4CCN(S(=O)(=O)C(C)C)CC4)[nH]c(=O)c3c2n1C [Compound 34, 2-(4-fluoro-2-methylphenylamino)-1,6-dimethyl-7-[3-(N-(isopropylsulfonyl)-piperazin-1-yl)-propenyl]-1,8-dihydro-imidazo[4,5-h]isoquinolin-9-one]	< 100 nM
C#CCN(C)CC=Cc1[nH]c(=O)c2c(ccc3nc(Nc4ccc(F)cc4C)n(C)c32)c1C [Compound 43, 2-(4-fluoro-2-methylphenylamino)-1,6-dimethyl-7-[3-(N-methyl-N-(prop-2-ynyl)amino)prop-1-enyl]-1,8-dihydro-imidazo[4,5-h]isoquinolin-9-one]	< 100 nM
Cc1cc(F)ccc1Nc1nc2ccc3c(C)c(C=CCNC(=O)C4CCP(=O)(c5ccccc5)CC4)[nH]c(=O)c3c2n1C (stereo not drawn) [Compound 16, 2-(4-fluoro-2-methylphenylamino)-1,6-dimethyl-7-{3-[(1-oxo-1-trans-phenyl-1λ^5-phosphinan-4-yl)-carbonylamino]propenyl}-1,8-dihydro-imidazo[4,5-h]isoquinolin-9-one]	< 100 nM
Cc1c(C=NNC(=O)c2ccc(N(C)C)cc2)[nH]c(=O)c2c1ccc1nc(Nc3c(Cl)cccc3Cl)n(C)c12 [Compound 46, 4-(N,N-dimethylamino)-benzoic acid [2-(2,6-dichlorophenylamino)-1,6-dimethyl-9-oxo-8,9-dihydro-1H-imidazo[4,5-h]isoquinolin-7-ylmethylene]-hydrazide]	> 1000 nM
Cc1cc(F)ccc1Nc1nc2ccc3c(C)c(C=CCN4CCN(c5ncccn5)CC4)[nH]c(=O)c3c2n1C [Compound 27, 2-(4-fluoro-2-methylphenylamino)-1,6-dimethyl-7-[3-(N-(pyrimidin-2-yl)-piperazin-1-yl)-propenyl]-1,8-dihydro-imidazo[4,5-h]isoquinolin-9-one]	< 100 nM
Cc1c(C=NNC(=O)c2ccccn2)[nH]c(=O)c2c1ccc1nc(Nc3c(Cl)cccc3Cl)n(C)c12 [Compound 47, pyridine-2-carboxylic acid [2-(2,6-dichlorophenylamino)-1,6-dimethyl-9-oxo-8,9-dihydro-1H-imidazo[4,5-h]isoquinolin-7-ylmethylene]-hydrazide]	100 to 1000 nM
C#CCN(C)CC=Cc1[nH]c(=O)c2c(ccc3nc(Nc4c(Cl)cccc4Cl)n(C)c32)c1C [Compound 42, 2-(2,6-dichlorophenylamino)-1,6-dimethyl-7-[3-(N-methyl-N-(prop-2-ynyl)amino)prop-1-enyl]-1,8-dihydro-imidazo[4,5-h]isoquinolin-9-one]	< 100 nM
Cc1cc(F)ccc1Nc1nc2ccc3c(C)c(/C=C/CN4CCN(S(C)(=O)=O)CC4)[nH]c(=O)c3c2n1C [Compound 24, 2-(4-fluoro-2-methylphenylamino)-1,6-dimethyl-7-[3-(N-methylsulfonylpiperazin-1-yl)-propenyl]-1,8-dihydro-imidazo[4,5-h]isoquinolin-9-one]	< 100 nM
Cc1cc(F)ccc1Nc1nc2ccc3c(C)c(/C=C/CNC(=O)[C@H]4CC[P@@](=O)(c5ccccc5)CC4)[nH]c(=O)c3c2n1C [Compound 17, 2-(4-fluoro-2-methyl-phenylamino)-1,6-dimethyl-7-{3-[(1-oxo-1-cis-phenyl-1λ^5-phosphinan-4-yl)-carbonylamino]propenyl}-1,8-dihydro-imidazo[4,5-h]isoquinolin-9-one]	< 100 nM
Cc1cc(F)ccc1Nc1nc2ccc3c(C)c(C=CCN4CCP(=O)(c5ccc(F)cc5)CC4)[nH]c(=O)c3c2n1C [Compound 10, 2-(4-fluoro-2-methylphenylamino)-1,6-dimethyl-7-[3-(4-oxo-4-(4-fluorophenyl)-4λ^5-[1,4]azaphosphinan-1-yl)-propenyl]-1,8-dihydro-imidazo[4,5-h]isoquinolin-9-one]	< 100 nM
Cc1cc(F)ccc1Nc1nc2ccc3c(C)c(C=CCN4CCN(c5ccc(Cl)cc5)CC4)[nH]c(=O)c3c2n1C [Compound 20, 2-(4-fluoro-2-methylphenylamino)-1,6-dimethyl-7-[3-(N-(4-chlorophenyl)-piperazin-1-yl)-propenyl]-1,8-dihydro-imidazo[4,5-h]isoquinolin-9-one]	< 100 nM
Cc1c(C=CS(=O)(=O)c2ccccc2)[nH]c(=O)c2c1ccc1nc(Nc3c(Cl)cccc3Cl)n(C)c12 [Compound 37, 2-(2,6-dichlorophenylamino)-1,6-dimethyl-7-[2-(phenylsulfonyl)-ethenyl]-1,8-dihydro-imidazo[4,5-h]isoquinolin-9-one]	< 100 nM
CCC[C@@H](C=CS(=O)(=O)c1ccccc1)NC(=O)Cc1c(C)[nH]c(=O)c2c1ccc1nc(Nc3ccc(F)cc3C)n(C)c12 [Compound 51, (S)-2-(4-fluoro-2-methylphenylamino)-1,7-dimethyl-6-{N-[1-(phenylsulfonyl)hex-1-en-3-yl]-amino-2-oxoethyl}-1,8-dihydro-imidazo[4,5-h]isoquinolin-9-one]	100 to 1000 nM
Cc1cc(F)ccc1Nc1nc2ccc3c(CC(=O)N4CCP(=O)(c5ccc(F)cc5)CC4)c(C)[nH]c(=O)c3c2n1C [Compound 50, 2-(4-fluoro-2-methylphenylamino)-1,7-dimethyl-6-{2-[4-(4-fluorophenyl)-4-oxo-4λ^5[1,4]azaphosphinan-1-yl]-2-oxoethyl}-1,8-dihydro-imidazo[4,5-h]isoquinolin-9-one]	100 to 1000 nM
Cc1cc(F)ccc1Nc1nc2ccc3c(C)c(/C=C/CN4CCP(C)(=O)CC4)[nH]c(=O)c3c2n1C [Compound 1, 2-(4-fluoro-2-methylphenylamino)-1,6-dimethyl-7-[3-(4-methyl-4-oxo-4λ^5[1,4]azaphosphinan-1-yl)-propenyl]-1,8-dihydro-imidazo[4,5-h]isoquinolin-9-one]	< 100 nM
Cc1cc(F)ccc1Nc1nc2ccc3c(C)c(C=CCN4CCN(C(=O)C(C)C)CC4)[nH]c(=O)c3c2n1C [Compound 36, 2-(4-fluoro-2-methylphenylamino)-1,6-dimethyl-7-[3-(N-isopropylcarbonylpiperazin-1-yl)-propenyl]-1,8-dihydro-imidazo[4,5-h]isoquinolin-9-one]	< 100 nM
Cc1c(C=CCN2CCN(c3ccccc3)CC2)[nH]c(=O)c2c1ccc1nc(Nc3c(Cl)cccc3Cl)n(C)c12 [Compound 18, 2-(2,6-dichlorophenylamino)-1,6-dimethyl-7-[3-(N-phenylpiperazin-1-yl)-propenyl]-1,8-dihydro-imidazo[4,5-h]isoquinolin-9-one]	< 100 nM
Cc1cc(F)ccc1Nc1nc2ccc3c(C)c(C=CCN4CCN(S(=O)(=O)N(C)C)CC4)[nH]c(=O)c3c2n1C [Compound 32, 2-(4-fluoro-2-methylphenylamino)-1,6-dimethyl-7-[3-(N—(N,N-dimethylaminosulfonyl)-piperazin-1-yl)-propenyl]-1,8-dihydro-imidazo[4,5-h]isoquinolin-9-one]	< 100 nM
Cc1cc(F)ccc1Nc1nc2ccc3c(C)c(/C=C/CN4CCP(=O)(CC5CC5)CC4)[nH]c(=O)c3c2n1C [Compound 13, 2-(4-fluoro-2-methylphenylamino)-1,6-dimethyl-7-{3-[4-(cyclopropylmethyl)-4-oxo-4λ^5-[1,4]azaphosphinan-1-yl]-propenyl}-1,8-dihydro-imidazo[4,5-h]isoquinolin-9-one]	< 100 nM
Cc1cc(F)ccc1Nc1nc2ccc3c(C)c(C=CCN4CCN(c5ccccc5)CC4)[nH]c(=O)c3c2n1C [Compound 19, 2-(4-fluoro-2-methylphenylamino)-1,6-dimethyl-7-[3-(N-phenylpiperazin-1-yl)-propenyl]-1,8-dihydro-imidazo[4,5-h]isoquinolin-9-one]	< 100 nM
Cc1cc(Cl)cc(Cl)c1Nc1nc2ccc3c(C)c(CCCN4CCP(=O)(c5ccccc5)CC4)[nH]c(=O)c3c2n1C [Compound 8, 2-(2,4-dichloro-6-methylphenylamino)-1,6-dimethyl-7-[3-(4-oxo-4-phenyl-4λ^5-[1,4]azaphosphinan-1-yl)-propyl]-1,8-dihydro-imidazo[4,5-h]isoquinolin-9-one]	100 to 1000 nM
Cc1cc(F)ccc1Nc1nc2ccc3c(C)c(C=CCN4CCN(S(=O)(=O)c5ccccc5)CC4)[nH]c(=O)c3c2n1C [Compound 29, 2-(4-fluoro-2-methylphenylamino)-1,6-dimethyl-7-[3-(N-phenylsulfonylpiperazin-1-yl)-propenyl]-1,8-dihydro-imidazo[4,5-h]isoquinolin-9-one]	< 100 nM
Cc1cc(F)ccc1Nc1nc2ccc3c(C)c(C=CCN4CCN(c5ccccn5)CC4)[nH]c(=O)c3c2n1C [Compound 26, 2-(4-fluoro-2-methylphenylamino)-1,6-dimethyl-7-[3-(N-(pyridin-2-yl)-piperazin-1-yl)-propenyl]-1,8-dihydro-imidazo[4,5-h]isoquinolin-9-one]	< 100 nM
